Patent publication US10093706B2, “Dominant positive hnRNP-E1 polypeptide compositions and methods” (Indiana University Research and Technology Corporation, priority 2017, dated 2018)
pKd: −log10 of the molar value. Values joined by “and” are separate entries in the source; they are usually repeats but may differ in a detail not shown here. Equal values may be shown once.

Tests used:
[1] = system: newly synthesized [^35S]folate receptors in placental 1584-HF cells; test: Biosynthetic rate of folate receptors after protein transfection into placental 1584-HF cells; type: cell-based, human; conditions: protein transfected in placental 1584-HF cells
Excerpt: (§1) Transfection of purified recombinant wild-type or various mutant hnRNP-E1 proteins into cells was achieved using the Xfect™ Protein Transfection Kit (Clontech, Mountain View, Calif.). Briefly, placental 1584-HF cells in 10-cm dishes at 70-80% confluence were transfected with 2.4-mL serum-free medium and Xfect Protein Transfection Reagent (1.2-mL) containing 20-μg of either wild-type hnRNP-E1-, or highest-affinity (HA)-hnRNP-E1(C293S)-mutant, or wild-type-like hnRNP-E1 (G292A)-mutant proteins and 2-μg of ß-galactosidase at 37° C. for 60-min. After cysteine-starvation for 4-h, an aliquot of cells were assessed for ß-galactosidase activity (to measure the efficiency of co-transfection of ß-galactosidase) and the remaining cells were pulsed with L-[^35S]cysteine (250-μCi) and assessed for specific [^35S]cysteine incorporated into folate receptor to determine the biosynthetic rate of this protein. A similar protocol was employed for analysis of newly synthesized [^35S]hnRNP-E1 using anti-hnRNP-E1 antiserum-coupled agarose and control agarose in order to derive values for specific [^35S]cysteine incorporated into hnRNP-E1 and thereby determine the biosynthetic rate of this protein.

HPV16 L2 RNA = test: In vitro translation of HPV16 L2 protein; type: biochemical, Human Papillomavirus type 16; conditions: after quenching excess ß-ME by NEM (2 mM)
Experimental: (§2) In vitro transcription-translation was carried out using the Linked SP6/T7 In Vitro Transcription/Translation Kit (Roche Applied Science) after addition of one of various targeted DNAs—pSPT18-25-hnRNP-E1 DNA, or Pst1-linearized plasmid pSPT18-folate receptor-α, or HPV16 L2 DNA, (0.5 μg/reaction)—to the transcription mix as described. In other experiments, the capacity for perturbing the interaction of hnRNP-E1 with the 25-nt hnRNP-E1 cis-element during in vitro translation was assessed in the presence of either scrambled oligonucleotides (5′-[…]-3′ SEQ ID NO:20) or specific antisense oligonucleotides (5′-[…]-3′ SEQ ID NO:21) generated against the 25-nt hnRNP-E1 mRNA cis-element (GenScript USA, Piscataway, N.J.).
(§3) Construction of plasmids for generation of HPV16 L2 RNA, gel-shift and in vitro translation studies were carried as described with additional treatments shown in FIGS. 10A-10D

folate receptor-α mRNA = test: In vitro translation of folate receptor-α; type: biochemical, human; conditions: presence of 2-mM NEM
Experimental: In vitro transcription-translation was carried out using the Linked SP6/T7 In Vitro Transcription/Translation Kit (Roche Applied Science) after addition of one of various targeted DNAs—pSPT18-25-hnRNP-E1 DNA, or Pst1-linearized plasmid pSPT18-folate receptor-α, or HPV16 L2 DNA, (0.5 μg/reaction)—to the transcription mix as described. In other experiments, the capacity for perturbing the interaction of hnRNP-E1 with the 25-nt hnRNP-E1 cis-element during in vitro translation was assessed in the presence of either scrambled oligonucleotides (5′-GCGTCGCTCGCTTCGCACGTGCGCC-3′ SEQ ID NO:20) or specific antisense oligonucleotides (5′-GGG AGC GAG CGG GCG GGA G-3′ SEQ ID NO:21) generated against the 25-nt hnRNP-E1 mRNA cis-element (GenScript USA, Piscataway, N.J.).

[2] = system: HPV16 L2 mRNA cis-element; test: Gel-shift assay of hnRNP-E1 proteins with HPV16 L2 mRNA; type: binding, Human Papillomavirus type 16; conditions: absence of reducing agents; versus wild-type and G292A
Experimental: (§4) Parenthetically, there was no significant difference in RNA binding to GST-hnRNP-E1 by use of either 32P-RNA probes or 35S-labeled RNA probes used. Other studies assessed the effect of iron(II) or iron(III) on homocysteine-induced RNA-protein interactions.
as §3

[3] = molecular target: [^35S]25-nt hnRNP-E1 mRNA cis-element; test: Dissociation constant (KD) of GST-hnRNP-E1 or its mutant proteins for the 25-nt hnRNP-E1 mRNA cis-element; type: binding, human; conditions: L-Homocysteine 0 μM
Experimental: (§5) Methods for testing the ability of an engineered hnRNP-E1 variant polypeptide to bind to an RNA comprising the sequence of SEQ ID NO:6 are known in the art. Such methods include, but are not limited to, RNA electrophoretic mobility shift assays, as exemplified herein, RNA pull-down assays, and oligonucleotide-targeted RNase H protection assays. Such assays are conducted in the presence or absence of homocysteine to determine the RNA-binding dependence of any particular hnRNP-E1 polypeptide tested on the presence of homocysteine. […] Additional methods are outline in Tang et al. (“Incrimination of heterogeneous nuclear ribonucleoprotein E1 (hnRNP-E1) as a candidate sensor of physiological folate deficiency.” J Biol Chem. 2011; 286(45):39100-39115), which is incorporated herein in its entirety.
(§6) Specific binding was determined by subtracting values of non-specific binding with GST from those of total binding with GST-hnRNP-E1; (however, in Table 1 and FIG. 6G, non-specific binding using bovine serum albumin (BSA) was subtracted from total binding to GST-hnRNP-E1 to determine specific binding). The KD was calculated from a Scatchard plot using GraphPad Prism 6 from GraphPad Software (San Diego, Calif.), as previously described in the art.

[4] = molecular target: [^35S]18-nt folate receptor-α mRNA cis-element; test: Dissociation constant (KD) of GST-hnRNP-E1 or its mutant proteins for the 18-nt folate receptor-α mRNA cis-element; type: binding, human; conditions: L-Homocysteine 0 μM; listed as (HA)-hnRNP-E1(C293 S)-mutant
Experimental: as §5, §6

hnRNP-E1 mRNA = test: In vitro translation of hnRNP-E1; type: biochemical, human; conditions: protein added after neutralizing ß-ME by N-ethylmaleimide
Experimental: as §2

[5] = system: 18-nt folate receptor-α mRNA cis-element; test: Gel-shift assay of hnRNP-E1 proteins with 18-nt folate receptor-α mRNA cis-element; type: binding, human; conditions: absence of homocysteine or other reducing agent
Experimental: as §4
(§7) Recombinant GST-plasmid DNA, pGST-hnRNP-E1, pGST-hnRNP-E2, and related engineered variant plasmids were transformed into BL21 Escherichia coli from Novagen (Madison, Wis.). After induction by 1 mM isopropyl-1-thio-ß-D-galactopyranoside, the GST-hnRNP-E1 and engineered variant fusion proteins were individually purified using the B-PER GST Fusion Protein Purification Kit (Pierce, Rockford, Ill.). The eluted GST fusion proteins were dialyzed against 500 volumes of buffer to remove excess reducing reagents (such as dithiothreitol (DTT)) and assayed by SDS-PAGE and Western blots using anti-peptide hnRNP-E1 antiserum. Gel shift assays with target RNA were carried out as described.

[6] = system: newly synthesized [^35S]hnRNP-E1 in placental 1584-HF cells; test: Biosynthetic rate of hnRNP-E1 after protein transfection into placental 1584-HF cells; type: cell-based, human; conditions: protein transfected in placental 1584-HF cells
Excerpt: as §1

[7] = system: 18-nt folate receptor-α mRNA cis-element-linked CAT reporter; test: CAT reporter driven by 18-nt folate receptor-α mRNA cis-element, co-transfected with hnRNP-E1 plasmids in HeLa-IU1-HF cells; type: cell-based, human; conditions: pSV-β-gal normalization
Experimental: A plasmid containing CAT reporter DNA driven by an 18-nucleotide folate receptor-α mRNA cis-element, was constructed as previously described. Briefly, HeLa-IU1-HF cells were grown to 70-80% confluence and then co-transfected with CAT reporter DNA driven by an 18-nucleotide folate receptor-α mRNA cis-element and various construct combinations of either wild-type and mutant hnRNP-E1 plasmids using X-tremeGENE DNA transfection reagent (Roche Applied Science). The transfection reactions were set up with 6-μg DNA and 12-μL XtremeGENE DNA transfection reagent for each well. In these transfection experiments, pSV-ß-gal was used as an internal control to monitor the efficiency of transfection of cells. After 48 h cells were harvested for protein determination using the BCA protein assay (Pierce); ß-galactosidase activity by the ß-galactosidase chemiluminescent assay (Roche Diagnostics); and CAT activity using a CAT ELISA kit (Roche Diagnostics). All experiments were carried out 4 times with 3 replications per treatment. The data from non-transfected cells was used as a background and subtracted from that obtained with transfected cells. All data were normalized using the internal standard and protein concentration for each treatment.

[8] = system: 25-nt hnRNP-E1 mRNA cis-element; test: Gel-shift assay of hnRNP-E1 proteins with 25-nt hnRNP-E1 mRNA cis-element; type: binding, human; conditions: absence of L-homocysteine
Experimental: as §4, §7

[9] = listed as (HA)-hnRNP-E1(C293S)-mutant

With “GST-hnRNP-E1(C293S): highest-affinity mutant, cysteine-293 to serine in the KH3 domain of hnRNP-E1 (SEQ ID NO:2)” the “[^35S]cysteine-folate receptor” value [1] was 6.62 ± 0.74 c fmol/mg protein/h, the “[^35S]cysteine-folate receptor” value [1, 9] was 6.62 fmol/mg protein/h and the “increase of [^35S]folate receptors over controls” value ([1]; over wild-type and G292A controls) was ~4 fold. The “HPV16 L2 protein signal” value (HPV16 L2 RNA) was “progressive reduction in signal”, the “translation of folate receptor-α” value (folate receptor-α mRNA) was “maximally increased” and the “interaction with HPV16 L2 mRNA on gel-shift assays” value [2] was “greater interaction”. For the same substance, the pKd [3] was 9.41, the pKd [4] was 9.57 and 9.70 and the “translation of hnRNP-E1 in vitro” value (hnRNP-E1 mRNA) was “markedly stimulated translation of hnRNP-E1 in vitro”. For the same substance, the RNA-protein signal [5] was “strongest RNA-protein signal”, the “[^35S]cysteine-hnRNP-E1” value [6] was 6.70 ± 1.74 c fmol/mg protein/h and the “increase in the rate of biosynthesis of [^35S]hnRNP-E1” value [6] was “over 6 fold”. For the same substance, the “[^35S]cysteine-hnRNP-E1” value [6, 9] was 6.70 fmol/mg protein/h, the “folate receptor-α cis-element-linked CAT activity versus wild-type hnRNP-E1 or G292A control” value [7] was “two and one-half times stronger” and the RNA-protein gel-shift signal [8] was “strong signal”.
